For assay [1], the target named is T1, Shc (PTB domain, Shc^PTB) (Homo sapiens, UniProt P29353).
T1 sequence (P29353 156-339 limits assumed): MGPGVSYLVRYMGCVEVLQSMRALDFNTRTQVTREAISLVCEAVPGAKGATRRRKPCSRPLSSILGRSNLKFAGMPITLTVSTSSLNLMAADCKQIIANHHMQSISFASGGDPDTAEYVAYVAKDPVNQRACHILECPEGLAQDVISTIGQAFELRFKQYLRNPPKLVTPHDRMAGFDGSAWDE
Kind of assay: ITC. The format is binding.

The target of assay [2] is T2, Shc (PTB domain, Shc^PTB R175Q) (Homo sapiens, UniProt P29353, R285Q).
T2 sequence (P29353 156-339 R285Q limits assumed): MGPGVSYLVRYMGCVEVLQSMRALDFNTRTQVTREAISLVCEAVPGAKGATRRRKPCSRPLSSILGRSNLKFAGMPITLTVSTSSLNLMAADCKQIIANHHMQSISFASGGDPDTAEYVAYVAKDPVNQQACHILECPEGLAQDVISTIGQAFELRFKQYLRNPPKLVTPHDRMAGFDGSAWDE
Description: MST with Atto488-labelled Shc^PTB R175Q. The class given is binding.

For assay [3], the target named is T3, Shc phosphotyrosine binding (PTB) domain (UniProt P29353-2 17-207, Atto488 label, 1:1 protein:dye (in the MST only)).
T3 sequence: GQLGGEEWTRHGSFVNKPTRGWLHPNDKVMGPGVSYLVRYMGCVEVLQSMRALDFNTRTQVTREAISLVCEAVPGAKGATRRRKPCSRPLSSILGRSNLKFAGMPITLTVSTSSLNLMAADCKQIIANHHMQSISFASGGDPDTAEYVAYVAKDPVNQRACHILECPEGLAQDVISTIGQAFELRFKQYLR
Kind of assay: MST.

The values that follow come from paper PMC6584941 (Cancer Letters, 2019).

Square brackets hold non-standard residues; d marks the D form. Ends that are not written are not given here. pY = N[C@@H](Cc1ccc(OP(=O)(O)O)cc1)C(=O)O

As a reminder, the Kd is the equilibrium constant for the complex coming apart. The low end stands for higher affinity, the high end for lower affinity.

With `COc1ccc2c(c1)c(CC(=O)O)c(C)n2C(=O)c1ccc(Cl)cc1` [indomethacin], the dissociation constant (Kd) was 38.2 ± 7.2 µM in assay [1] and 590 ± 54 µM in assay [2]. Take SPAFDNLY[pY]WDQ [ErbB2 pY1122 peptide]: the Kd in assay [3] stood at 0.261 µM.
